Consider seven compounds from patent publication US5134235A, “Process for separating folinic acid” (Eprova A.G., priority 1987, dated 1992).

For series [1] the following is noted: cited: J. A. Straw et al, Cancer Research 44, 3114 (1984); cited from earlier work.
For series [2] the following is noted: cited: J. A. Straw et al, Cancer Research 44, 3114 (1984); cited from earlier work. The source holds these as a separate data set.
Another series is described as follows: Solubility in water. The format is physicochemical. To be noted: for solubility in water (in words): qualitative; for solubility: water.
Series [3] is described as follows: Stability of folinic acid at higher pH during recrystallization. It counts as physicochemical. The following applies: pH above the 8.5 to 12 range of the first recrystallization.

In general, solubility refers to the concentration that dissolves in the medium under given conditions.

Where two headings read alike, the source gives them in different places.

As for `Nc1nc2c(c(=O)[nH]1)N(C=O)[C@H](CNc1ccc(C(=O)N[C@@H](CCC(=O)O)C(=O)O)cc1)CN2` [5-CHO-(6R)-H4 PteGlu], in series [1], the “elimination through the urine” value is given as “slowly eliminated through the urine” and the metabolism result is recorded as “barely metabolized”. Besides, the biochemical activity entry in series [2] is “biochemically inactive”. For `Nc1nc(=O)c2c([nH]1)NC[C@H](CNc1ccc(C(=O)N[C@@H](CCC(=O)O)C(=O)O)cc1)N2C=O` [(6S)-folinic acid, N-(5-formyl-(6S)-5,6,7,8-tetrahydro-pteroyl)-L-glutamic acid], the “solubility in water (in words)” value in “Solubility in water” is reported as “barely soluble”. The same measure, in the same setting: the entry for `Nc1nc(=O)c2c([nH]1)NC[C@H](CNc1ccc(C(=O)N[C@@H](CCC(=O)O)C(=O)O)cc1)N2C=O` [Potassium-(6S)-folinate] is “readily soluble”. Still for that read-out and setting: as for `Nc1nc(=O)c2c([nH]1)NC[C@H](CNc1ccc(C(=O)N[C@@H](CCC(=O)O)C(=O)O)cc1)N2C=O` [Sodium-(6S)-folinate], the entry is “readily soluble”.

With `Nc1nc(=O)c2c([nH]1)NC[C@H](CNc1ccc(C(=O)N[C@@H](CCC(=O)O)C(=O)O)cc1)N2C=O` [calcium-(6S)-folinate, Calcium-(6S)-folinate], the “strength of aqueous solution that can be formed” value in the series “Solubility in water” (at 20° C., aqueous solution) was 0.95%. In addition, in “Solubility in water” (at 40° C., read-out: Solubility in water), the solubility stood at 15 mg/mL. As for `Nc1nc2c(c(=O)[nH]1)N(C=O)C(CNc1ccc(C(=O)N[C@@H](CCC(=O)O)C(=O)O)cc1)CN2` (stereo partly drawn) [folinic acid, N-(5-formyl-(6R,S)-5,6,7,8-tetrahydro-pteroyl)-L-glutamic acid], in series [3], the “stability at higher pH” value is recorded as “appreciably lower”.

As to `Nc1nc(=O)c2c([nH]1)NC[C@H](CNc1ccc(C(=O)N[C@@H](CCC(=O)O)C(=O)O)cc1)N2C=O` [magnesium-(6S)-folinate, Magnesium-(6S)-folinate], the Solubility in water in “Solubility in water” (at 20° C.) came to 2.4 g/100 ml. Further, the solubility in the series “Solubility in water” (general statement in description, temperature not given, read-out: water solubility) was above 20 mg/mL.
